In experiment [1] the test system is COS-1 cells expressing NRP1 and Plexin-A1. Put plainly: COS cellular collapses triggered by Sema3A. Type of experiment: cell-based. The following applies: peptide 10^−9 M, 1 hour pre-incubation, Sema 3A 4 hours. The protocol:
Nevertheless, the artificial expression of NRP1 and Plexin-A1 in COS cells allows Sema 3A to trigger cellular collapses. To investigate the effect of the pTM-NRP1 peptide on the Sema3A functional properties, the shape of COS cells expressing NRP1 and Plexin-A1 was analyzed in the presence or not of Sema 3A and of pTM-NRP1 or pTM-NRP1^mut peptide.
COS-1 cells have been transfected by 1 μg of pBK-CMV (STRATAGENE) plasmids containing NRP1 and plexin-A1 coding sequences (provided by Pr. PUSCHEL; MUNSTER Universitat, Germany) with LIPOFECTAMINE 2000 (IN VITROGEN) according to the manufacturer's instructions in 6-well plates. Stably COS-1 transfected cells have been selected with 0.7% geneticine. Stably transfected COS-1 cells have been cultured on 12-well plates with previously poly-L-lysine-coated glass coverslips. Cells have been then incubated 1 hour with pTM-NRP1 or pTM-NRP1^mut peptide (10^−9M) at 37° C. The culture medium has been then removed and replaced by conditioned medium of HEK cells stably transfected or not with a construction expressing Sema 3A (100 μl/ml D-MEM) for 4 hours at 37° C. Finally, cells have been fixed with 2% formaldehyde for 30 minutes followed by 15 minutes in formaldehyde 4%. For each condition tested, about 400 cells have been analyzed.

The target in experiment [2] is T1, NRP1 (Rattus norvegicus, UniProt Q9QWJ9).
T1 construct: Rat C6 glioma cells, which express semaphorin receptors; endogenous in cells; host or cells: rat C6 glioma cells
Briefly: AP-Sema3A binding to its receptor NRP1 on C6 glioma cells (luminescence). To be noted: peptide 10^−12 M to 10^−10 M, 1 hour. The protocol:
In order to investigate the NRP1 transmembrane domain role in the linkage NRP1-class III semaphorins, the binding of the ligand Sema3A to its receptor NRP1 on glioma cells was measured in the presence or not of the transmembrane domain peptide of NRP1 (pTM-NRP1 peptide; SEQ ID NO. 1) or of a mutated peptide (mpTM-NRP1; SEQ ID NO. 20, […]). These pTM-NRP1 Peptides have been synthesized by automatic peptidic synthesis (Fmoc chemistry, APPLIED SYSTEM), and analyzed by mass spectrometry. Peptides purity has been estimated by RP-HPLC (BECKMAN) as higher than 90%.
Rat C6 glioma cells, which express semaphorin receptors, has been used to determine the binding capacity of AP-Sema3A, a secreted alkaline phosphatase version of Sema 3A (ADAMS et al., 1997, BAGNARD et al., 1998). These cells were grown and plated in MEM medium (GIBCO) with 10% foetal calf serum (PERBIO), glutamine 0.5 mM (GIBCO) and antibiotics: 100 U/ml penicillin and 100 μg/ml streptomycin (SIGMA).
C6 Cells were cultured in 96-well plates and incubated with or without freshly diluted pTM-NRP1 or pTM-NRP1^mut peptides (10^−12 M to 10^−10 M) for 1 hour at 37° C. The culture medium has been then replaced by conditioned medium of HEK cells stably transfected with a construction expressing AP-Sema 3A (ADAMS et al., EMBO J., vol. 16(20), p: 6077-86, 1997; BAGNARD et al., 1998). Conditioned medium from HEK non transfected cells has been used as an internal control. The pTM-NRP1 Peptide has been synthesized by automatic peptidic synthesis (Fmoc chemistry, APPLIED SYSTEM), and analyzed by mass spectrometry. Peptides purity has been estimated by RP-HPLC (BECKMAN) as higher than 90%, the cells have been washed with PBS and incubated with 50 μl of alkaline phosphatase luminescent substrate (AMERSHAM). The luminescence has been read after 15 minutes with MICROLUMAT PLUS system (BERTHOLD TECHNOLOGIES) according to the manufacturer's instructions. Experiments were done 4 times for each peptide.

Experiment [3] concerns VEGF165 signalling in C6 cells. Put plainly: VEGF165-induced migration of C6 tumour cell aggregates in 3D matrix (plasma clot). Type of experiment: cell-based. To be noted: VEGF165 50 ng/ml, peptide 10^−8 M. The protocol:
NRP1 is a receptor of VEGF (NEUFELD et al., Adv. Exp. Med. Biol., vol. 515, p: 81-90, 2002). We therefore verified that pTM-NRP1 can antagonize VEGF signalling in C6 cells. To this end, C6 tumour cell aggregates prepared as previously described (see BAGNARD et al., 1998; and NASARRE et al., Neoplasia, vol. 7, p: 180-189, 2005) were grown in the 3D matrix (plasma clot) and treated with VEGF165.

Experiment [4] has as its target T2, NRP1 (Homo sapiens, UniProt O14786).
T2 construct: mutations were introduced into the TM domain of a full length NRP1; expressed in transfected cells; host or cells: COS-1 cells, pBK-CMV plasmid (cDNA provided by Pr. Puschel)
Briefly: AP-Sema3A binding to NRP1-expressing COS cells (optical density per cell). The following applies: peptide 10^−9 M, 1 hour pre-incubation. The protocol: NRP1 expressing COS cells were incubated with AP-Sema3A, a fusion protein of Sema3A and the secreted alkaline phosphatase (BAGNARD et al., 1998).
Wild-type COS cells or NRP1-expressing COS cells (COS-NRP1) were cultured on 12-wells plates on poly-L-lysine-coated glass coverslips (0.005 mg/ml). After one-hour incubation with pTM-NRP1 or pTM-NRP1^mut (10^−9M) in serum-free medium at 37° C., the culture medium was replaced by conditioned medium containing alkaline phosphatase-coupled Sema3A (AP-Sema3A; BAGNARD et al., 1998) obtained from AP-Sema3A stably expressing HEK cells for 90 mn. Conditioned medium without semaphorin served as a control (obtained from non-transfected HEK). Cells were washed three times with PBS and fixed in 4% formaldehyde before transfer in a new dish. After three washes in PBS, the plate was warmed for 50 mn at 65° C. Cells were subsequently incubated with 1 ml of alkaline phosphatase substrate (NBT/BCIP, SIGMA) in the dark. After 45 mn, substrate was removed and glass coverslips were rinsed. Pictures were acquired with a conventional microscope and analyzed with AxioVision LE Zeiss software. For each condition tested, about 60 cells were analyzed to determine binding levels as a function of optical density. Statistical analysis was performed by using a Student's t test.

The test system of experiment [5] is cortical axons collapses triggered by Sema3A. Briefly: Cortical axons collapses triggered by Sema3A in neocortex explants. Type of experiment: cell-based, mouse. The following applies: peptide 10^−8 M, Sema3A 100 ng/ml. On the procedure:
The inhibitory axon growth property of Sema 3A is supposed to be linked to its induction capacity of growth cone collapses. To investigate the effect of the pTM-NRP1 peptide on the Sema 3A functional properties, the growth of cortical neurons was analyzed in the presence or not of Sema 3A and of pTM-NRP1 or pTM-NRP1^mut (NRP1 TM with a triple G→V mutation) peptides.
Laminine/Poly-L-Lysine substrates have been made by adding 980 μL of Gey's balanced salt solution (GBSS, SIGMA) to 10 μL laminine (1 mg/ml, SIGMA) and to 10 μL poly-L-Lysine (10 mg/ml, SIGMA). Sterile coverslips have been placed in a big dish and added with substrate (100 μL). Then, ‘sandwiches’ have been prepared by covering each coverslip with a second one. After an incubation for at least 30 min at 37° C. under 5% CO2 in air, ‘sandwiches’ have been opened and each coverslip has been rinsed with deionized water. Explants have been cultured on dried coverslips.
Neocortex fragments prepared from E15 mouse embryos (E1 determined as the first day of embryonic development by detection of vaginal plug) have been transferred on a tissue chopper disk. Tissue have been cut into 200×200 μm by rotating the disk by 90° after the first cut. Cortex cubes have been collected with a spatula and put into culture medium in a Petri dish. Two coverslips with substrate have been placed in a small Petri dish (50 mm diameter, FALCON). After adding 750 μl of culture medium, the coverslips should stay in the incubator for at least 10 minutes. Using a dissecting microscope, forty to fifty cortical explants have been collected in 20 μl culture medium and carefully placed onto the coverslips. After 15 min at room temperature, most explants have adhered to their substrate. 2250 μl of culture medium have been slowly added to each dish. Then, explants cultures have been kept at 37° C. under 5% CO2 in air.
A radial outgrowth could be seen after 18-24 h in culture, and individual fibres and growth cones could have therefore been analyzed. Products tested on growth cones have been directly added in culture medium for 2 h: • purified Sema3A (100 ng/ml) prepared from conditioned medium of HEK293 cells stably expressing Sema3A. The purification was performed by using the anti-Flag system, SIGMA) • pTM-NRP1 (10^−8, 10^−9, 10^−10 and 10^−11 M), • 10^−8M mpTM-NRP1, • 10^−8M pTM-ErbB2w (SEQ ID NO. 18).
After incubation, 4% formaldehyde has been directly added in culture medium (v/v) for 15min. Then the solution has been removed and replaced by 4% formaldehyde for 15 min.

T2 sequence (O14786 22-923): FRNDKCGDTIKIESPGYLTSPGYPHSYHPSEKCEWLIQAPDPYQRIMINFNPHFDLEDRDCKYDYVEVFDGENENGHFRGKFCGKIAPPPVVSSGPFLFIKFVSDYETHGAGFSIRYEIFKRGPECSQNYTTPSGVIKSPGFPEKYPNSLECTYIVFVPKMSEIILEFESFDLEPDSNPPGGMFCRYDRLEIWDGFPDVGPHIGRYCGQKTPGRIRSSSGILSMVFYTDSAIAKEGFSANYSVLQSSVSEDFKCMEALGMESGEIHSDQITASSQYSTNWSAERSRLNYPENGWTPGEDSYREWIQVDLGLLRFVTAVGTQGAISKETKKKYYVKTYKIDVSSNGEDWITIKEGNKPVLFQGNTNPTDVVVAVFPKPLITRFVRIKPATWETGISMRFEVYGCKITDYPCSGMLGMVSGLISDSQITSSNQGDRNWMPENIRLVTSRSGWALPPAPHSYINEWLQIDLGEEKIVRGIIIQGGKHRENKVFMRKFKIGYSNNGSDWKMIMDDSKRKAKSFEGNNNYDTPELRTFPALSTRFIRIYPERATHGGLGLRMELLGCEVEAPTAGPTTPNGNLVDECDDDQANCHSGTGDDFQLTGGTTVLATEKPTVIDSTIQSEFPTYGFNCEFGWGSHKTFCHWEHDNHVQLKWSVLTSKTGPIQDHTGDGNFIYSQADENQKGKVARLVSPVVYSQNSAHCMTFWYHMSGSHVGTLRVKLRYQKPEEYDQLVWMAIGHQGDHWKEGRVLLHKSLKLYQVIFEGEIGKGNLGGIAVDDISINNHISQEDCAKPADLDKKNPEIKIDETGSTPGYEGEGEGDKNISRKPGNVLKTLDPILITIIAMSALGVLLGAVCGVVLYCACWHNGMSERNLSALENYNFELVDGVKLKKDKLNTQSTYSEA

For the sequence “ILITIIAMSALVVLLVAVCVVVLYRKR [pTM-NRP1^mut, reference compound]”, the “effect on cellular collapses of COS-1 cells triggered by Sema 3A” value in experiment [1] was “did not block”. For the same sequence, the “binding of AP-Sema3A to its receptor NRP1 on C6 cells” value on NRP1 [2] was “did not block”. Besides, the “VEGF165-dependent C6 cells migration out of aggregates” value in experiment [3] was “not able to block”. For the same sequence, at NRP1 [4], the “binding of AP-Sema3A to NRP1-expressing COS cells” value is reported as “did not block”. The “effect on cortical axons collapses triggered by Sema3A” value in experiment [5] is listed as “did not block”.
For the sequence “SIISAVVGILLVVVLGVVFGILI [ErbB2 peptide, reference compound]”, the “effect on cortical axons collapses triggered by Sema3A” value in experiment [5] is on record as “no effect”.

Values taken from US8956622B2, “Peptidic antagonists of class III semaphorins/neuropilins complexes” (INSERM—Institut National de la Sante et de la Recherche …, priority 2005, dated 2015).
